Experimental findings from ChEMBL document CHEMBL5360626, “Bifunctionalized Betulinic Acid Conjugates with C-3-Monodesmoside and C-28-Triphenylphosphonium Moieties with Increased Cancer Cell Targetability” (J Nat Prod, 2023) are described below.

Calls of active or inactive are those of the source. The rule behind the calls is not given here.

In general, IC50 refers to the point on the concentration scale where inhibition reaches its midpoint. High values mean a need for much substance, low ones inhibition by little substance.

Series [1] in a line: Cytotoxicity against human skin fibroblast cells incubated for 72 hrs by MTT assay. It counts as toxicity, cell-based.
Series [2] in a line: Selectivity index, ratio of IC50 for human skin fibroblast to IC50 for human PC-3 cells. The format is toxicity. Conditions: human skin fibroblasts and PC-3 cells, read-out: Ratio IC50.
For series [3], the system named is PC-3. Put plainly: Downregulation of LC-3 expression in human PC-3 cells at IC50 incubated for 3 days by Western blot analysis. The format is functional, cell-based. Conditions: time 3.0 day. (In general: A western blot detects proteins with antibodies after separation by electrophoresis.)
The subject of series [4] is PC-3. Briefly: Cytotoxicity against human PC-3 cells incubated for 72 hrs by MTT assay. The format is functional, cell-based. Conditions: PC-3, 72 h. A general note: Formazan colour is commonly taken as a measure of viable cells.
Series [5] in a line: Selectivity index, ratio of IC50 for human skin fibroblast to IC50 for human Caco-2 cells.
Series [6] concerns PC-3. Put plainly: Induction of mitochondrial transmembrane potential dissipation in human PC-3 cells at 30 uM incubated for 1 hr by TMRE staining based flow cytometry. It counts as functional, cell-based.
The subject of series [7] is PC-3. Briefly: Upregulation of Cas3 expression in human PC-3 cells at IC50 incubated for 3 days by Western blot analysis. The format is functional, cell-based. Conditions: time 3.0 day.
The subject of series [8] is Caco-2. Briefly: Cytotoxicity against human Caco-2 cells incubated for 72 hrs by MTT assay. It counts as functional, cell-based. Conditions: Caco-2, 72 h.
The nature of series [9]: Drug accumulation in human PC-3 cells at 1 uM incubated for 2 hrs by LC-MS/MS analysis. It counts as ADME, cell-based. Conditions: pc-3, 2 h.
Series [10] deals with PC-3. Put plainly: Downregulation of Akt expression in human PC-3 cells at IC50 incubated for 3 days by Western blot analysis. The format is functional, cell-based. Conditions: time 3.0 day.
Series [11] concerns PC-3. Briefly: […] of ROS production in human PC-3 cells at 30 uM incubated for 1 hr by MitoSOX staining based flow cytometry. It counts as functional, cell-based. In general terms: Flow cytometry measures light scatter and fluorescence of single cells or particles in a stream.
Series [12] concerns PC-3. Briefly: Downregulation of ATG14 expression in human PC-3 cells at IC50 incubated for 3 days by Western blot analysis. It counts as functional, cell-based. Conditions: time 3.0 day.
Series [13] has as its system PC-3. Briefly: Downregulation of Beclin-1 expression in human PC-3 cells at IC50 incubated for 3 days by Western blot analysis. The format is functional, cell-based. Conditions: time 3.0 day.
The subject of series [14] is MCF7. Briefly: Cytotoxicity against human MCF7 cells incubated for 72 hrs by MTT assay. Conditions: MCF7, 72 h. It counts as functional, cell-based.

`C=C(C)[C@@H]1CC[C@]2(C(=O)OCCCCCC[P+](c3ccccc3)(c3ccccc3)c3ccccc3)CC[C@]3(C)[C@H](CC[C@@H]4[C@@]5(C)CC[C@H](O[C@@H]6O[C@@H](C)[C@H](O)[C@@H](O)[C@H]6O)C(C)(C)[C@@H]5CC[C@]43C)[C@@H]12.[Br-]` had an IC50 at 72 h in series [1] of 10.8 µM. Also, the selectivity ratio in series [2] turned out to be 9.7. The outcome in series [3], in series [6], in series [7], in series [10], in series [11] and in series [12] was Active. The result in series [13] was Active. The IC50 in [4] was 1200 nM; in [8] it was 2000 nM; in series [14], 1100 nM. The Ratio IC50 in [5] was found to be 5.9. The same compound returned a Drug uptake in [9] of 3.5 µM.

With `C=C(C)[C@@H]1CC[C@]2(C(=O)OCCCCCC[P+](c3ccccc3)(c3ccccc3)c3ccccc3)CC[C@]3(C)[C@H](CC[C@@H]4[C@@]5(C)CC[C@H](O[C@H]6O[C@H](CO)[C@@H](O)[C@H](O)[C@@H]6O)C(C)(C)[C@@H]5CC[C@]43C)[C@@H]12.[Br-]`, the IC50 at 72 h in series [1] turned out to be 2.9 µM. Further, in series [2], the selectivity ratio came out at 2.5. The IC50 in series [4] was found to be 2300 nM; in [8], 2400 nM; in [14], 2000 nM. Moreover, in series [5], the Ratio IC50 was determined as 2.4. Besides, the outcome in series [6] and in series [11] was Active. The compound also displayed a Drug uptake in [9] of 3.5 µM.

`C=C(C)[C@@H]1CC[C@]2(C(=O)O)CC[C@]3(C)[C@H](CC[C@@H]4[C@@]5(C)CC[C@H](O)C(C)(C)[C@@H]5CC[C@]43C)[C@@H]12` [BETULINIC ACID]: the Drug uptake in series [9] amounted to 0.035 µM.

With `C=C(C)[C@@H]1CC[C@]2(C(=O)OCCCCCC[P+](c3ccccc3)(c3ccccc3)c3ccccc3)CC[C@]3(C)[C@H](CC[C@@H]4[C@@]5(C)CC[C@H](O)C(C)(C)[C@@H]5CC[C@]43C)[C@@H]12.[Br-]`, the IC50 at 72 h in series [1] is 8.5 µM. The selectivity ratio in series [2] stood at 8.3. For the same compound, the concentration for half-maximal inhibition (IC50) in [4] was 800 nM; in series [8], 1400 nM; in [14], 800 nM. The Ratio IC50 in series [5] stood at 4.7. This compound registered a Drug uptake in series [9] of 3.5 µM.

For `C=C(C)[C@@H]1CC[C@]2(C(=O)OCCCCCC[P+](c3ccccc3)(c3ccccc3)c3ccccc3)CC[C@]3(C)[C@H](CC[C@@H]4[C@@]5(C)CC[C@H](O[C@@H]6O[C@H](CO)[C@@H](O)[C@H](O)[C@H]6O)C(C)(C)[C@@H]5CC[C@]43C)[C@@H]12.[Br-]`, in series [1], it took 16.5 µM to reach half-maximal inhibition (IC50 at 72 h). Also, the selectivity ratio in series [2] was 32. Besides, the result in series [3], in [6], in series [7], in series [10], in [11] and in series [12] was Active. Besides, in series [13], the outcome was Active. In addition, the IC50 in [4] worked out at 400 nM; in [8], 1100 nM; in series [14] it was 700 nM. The Ratio IC50 in series [5] came to 10.2. The Drug uptake in series [9] was 172.9 µM.
